Data from US9421237B2, “Tripeptide boronic acid or boronic ester, preparative method and use thereof” (PEKING UNIVERSITY, priority 2009, dated 2016).

Tests used:
[1] = target: T1, 20S proteasome extracted from rat liver, chymotryptic-like (CT-L) activity (Rattus norvegicus, UniProt P18421+P28075); test: Proteasome inhibition, chymotryptic-like (CT-L) activity, fluorescent peptide Suc-leu-leu-Val-Tyr-AMC; assay type: biochemical; conditions: rat liver 20S proteasome, 37° C., 1 h
T1 construct: 20S proteasome extracted from rat liver; from tissue; host or cells: rat liver
Method: (§1) The activities of the proteasome were assayed using fluorescent peptides: Suc-leu-leu-Val-Tyr-AMC (Suc represents succinyl, and AMC represents 7-amino-4-methylcoumarin, purchased from SIGMA) for determining chymotryptic-like (CT-L) activity; Z-Ala-Arg-Arg-AMC (Z represents benzyloxycarbonyl, purchased from Calbiochem) for determining trypsin-like (TL) activity; and Z-leu-leu-Glu-βNA (βNA represents β-naphtylamide, purchased from SIGMA) for determining peptidyl-glutamyl-peptide-hydrolyzing (PGPH) enzyme activity.
(§2) Method for the aforesaid activity assays is as follows: 1 μg of 20S proteasome extracted from rat liver was incubated with a 100 μL solution containing various concentrations of compounds, 50 μM fluorescent peptides and 20 mM Tris-HCl at 37° C. for 1 h, respectively. The fluorescence released from AMC and RNA reagents was measured by a spectrofluorimeter Fluostar OPTIMA and BMG Germany at excitation/emission wavelengths of 380/440 nm and 335/410 nm, respectively. 0.1% DMSO was used as a solvent control. Compared with the fluorescence of solvent control, an inhibition rate was calculated.

[2] = target: T2, 20S proteasome extracted from rat liver, trypsin-like (TL) activity (Rattus norvegicus, UniProt P40112+Q9JHW0); test: Proteasome inhibition, trypsin-like (TL) activity, fluorescent peptide Z-Ala-Arg-Arg-AMC; assay type: biochemical; conditions: rat liver 20S proteasome, 37° C., 1 h; read-out: T-L (IC50)
T2 construct: 20S proteasome extracted from rat liver; from tissue; host or cells: rat liver
Method: as §1
as §2, with “calculated. Said assays used anticancer drug bortezomib (leukemia drug), namely PS341 as compound for positive control.” for “calculated.”

[3] = target: T3, 20S proteasome extracted from rat liver, peptidyl-glutamyl-peptide-hydrolyzing (PGPH) enzyme activity (Rattus norvegicus, UniProt P28073+Q9JHW0); test: Proteasome inhibition, PGPH activity, fluorescent peptide Z-leu-leu-Glu-βNA; assay type: biochemical; conditions: rat liver 20S proteasome, 37° C., 1 h
T3 construct: 20S proteasome extracted from rat liver; from tissue; host or cells: rat liver
Method: as §1
as §2, with “calculated. Said assays used anticancer drug bortezomib (leukemia drug), namely PS341 as compound for positive control.” for “calculated.”

[4] = tested on: HL-60 human leukemia cell; test: Preliminary anti-tumor screening in vitro, MTT method; assay type: cell-based; design: key to Test results: +++: inhibition rates at three doses are greater than 50%; ++: inhibition rates at two doses are greater than 50%; +: inhibition rate at one dose is greater than 50%; conditions: HL-60, MTT; for Test results: number of doses with inhibition > 50%; for inhibition at 0.05 µM / inhibition at 0.5 µM / inhibition at 5 µM: Homo sapiens, read-out: Inhibition rate %
Method: (§3) The test methods used in this test example is the routine method for anti-tumor activities test in pharmaceutical area, for example, referring to the following reference: (J. Immunol Method, 1983, 65, 55).
(§4) Test models: A: MTT method (HL-60 human leukemia); B: SRB method (BGC-823 human gastric cancer); C: SRB method (Bel-7402 human hepatocarcinoma); D: SRB method (KB human nasopharyngeal carcinoma).
(§5) The aforesaid tests were carried out with the compounds of Examples 1-26 in the present invention, test results are shown in Tables 2-5.

[5] = tested on: BGC-823 human gastric cancer cell; test: Preliminary anti-tumor screening in vitro, SRB method; assay type: cell-based; design: key to Test results: +++: inhibition rates at three doses are greater than 50%; ++: inhibition rates at two doses are greater than 50%; +: inhibition rate at one dose is greater than 50%; conditions: BGC-823, SRB; for Test results: number of doses with inhibition > 50%; for inhibition at 0.05 µM / inhibition at 0.5 µM / inhibition at 5 µM: Homo sapiens, read-out: Inhibition rate %
Method: as §3, §4, §5

[6] = tested on: Bel-7402 human hepatocarcinoma cell; test: as above; assay type: cell-based; design: key to Test results: +++: inhibition rates at three doses are greater than 50%; ++: inhibition rates at two doses are greater than 50%; +: inhibition rate at one dose is greater than 50%; conditions: Bel-7402, SRB; for Test results: number of doses with inhibition > 50%; for inhibition at 0.05 µM / inhibition at 0.5 µM / inhibition at 5 µM: Homo sapiens, read-out: Inhibition rate %
Method: as §3, §4, §5

[7] = tested on: KB human nasopharyngeal carcinoma cell; test: as above; assay type: cell-based; design: key to Test results: +++: inhibition rates at three doses are greater than 50%; ++: inhibition rates at two doses are greater than 50%; +: inhibition rate at one dose is greater than 50%; conditions: for inhibition at 0.05 µM / inhibition at 0.5 µM / inhibition at 5 µM: Homo sapiens, read-out: Inhibition rate %; for Test results: number of doses with inhibition > 50%
Method: as §3, §4, §5

Structure (SMILES) | IC50 [1] | IC50 [2] | IC50 [3] | melting point | Test results [4] | inhibition at 0.05 µM [4] | inhibition at 0.5 µM [4] | inhibition at 5 µM [4] | Test results [5] | inhibition at 0.05 µM [5] | inhibition at 0.5 µM [5] | inhibition at 5 µM [5] | Test results [6] | inhibition at 0.05 µM [6] | inhibition at 0.5 µM [6] | inhibition at 5 µM [6] | inhibition at 0.05 µM [7] | inhibition at 0.5 µM [7] | inhibition at 5 µM [7] | Test results [7]
CC(C)C[C@H](NC(=O)[C@H](Cc1ccc(O)cc1)NC(=O)[C@H](Cc1ccccc1)NC(=O)c1cnccn1)B1OC2CC3C[C@@H](C3(C)C)[C@]2(C)O1 (stereo partly drawn) [Compound 5c, Pinanediol N-pyrazineformyl-L-phenylalanyl-L-tyrosyl-L-leucine Borate] | 0.335 ± 0.031 nM | > 20 nM | 5.39 ± 0.368 nM | 119 to 120 °C | + | -10.5% | 1.94% | 99% | ++ | 3.19% | 56% | 96.1% | + | 4.18% | 16.6% | 91.1% | 1.84% | 29.8% | 91.4% | +
CC(C)C[C@H](NC(=O)[C@H](Cc1ccc2ccccc2c1)NC(=O)[C@H](CC(C)C)NC(=O)c1cnccn1)B1OC2CC3C[C@@H](C3(C)C)[C@]2(C)O1 (stereo partly drawn) [Compound 5f, Pinanediol N-pyrazineformyl-L-leucyl-L-naphthylalanyl-L-leucineborate] | 0.37 ± 0.141 nM | > 20 nM | 3.91 ± 1.72 nM | 140 to 142 °C | ++ | -19.9% | 81.9% | 88.6% | ++ | 38.3% | 89.2% | 83% | ++ | 3.18% | 83.9% | 92.3% | 3.74% | 93.4% | 95.3% | ++

These reach a lower IC50 [1]. Values come first.

IC50 [1] | IC50 [2] | IC50 [3] | melting point | Structure (SMILES) | Test results [4] | inhibition at 0.05 µM [4] | inhibition at 0.5 µM [4] | inhibition at 5 µM [4] | Test results [5] | inhibition at 0.05 µM [5] | inhibition at 0.5 µM [5] | inhibition at 5 µM [5] | Test results [6] | inhibition at 0.05 µM [6] | inhibition at 0.5 µM [6] | inhibition at 5 µM [6] | inhibition at 0.05 µM [7] | inhibition at 0.5 µM [7] | inhibition at 5 µM [7] | Test results [7]
0.22 ± 0.106 nM | > 20 nM | > 20 nM | 98 to 100 °C | CC(C)C[C@H](NC(=O)[C@H](Cc1ccccc1)NC(=O)[C@H](Cc1ccc2ccccc2c1)NC(=O)c1cnccn1)B1OC2CC3C[C@@H](C3(C)C)[C@]2(C)O1 (stereo partly drawn) [Compound 5b, Pinanediol N-pyrazineformyl-L-naphthylalanyl-L-phenylalanyl-L-leucine Borate] | ++ | 21.1% | 88.1% | 88.1% | +++ | 68.6% | 94.8% | 96.5% | ++ | 35.9% | 66.7% | 91% | 40.4% | 95.1% | 95.8% | ++
0.295 ± 0.049 nM | > 20 nM | 4.76 ± 1.31 nM | 90 to 92 °C | CC(C)C[C@H](NC(=O)[C@H](Cc1ccccc1)NC(=O)[C@H](Cc1ccc(O)cc1)NC(=O)c1cnccn1)B1OC2CC3C[C@@H](C3(C)C)[C@]2(C)O1 (stereo partly drawn) [Compound 5d, Pinanediol N-pyrazineformyl-L-tyrosyl-L-phenylalanyl-L-leucine Borate] | + | -11.8% | 35.9% | 88.9% | ++ | 23.6% | 93.6% | 97.8% | ++ | 5.52% | 52% | 93.1% | 0.83% | 73.2% | 94.8% | ++
0.173 ± 0.033 nM | > 20 nM | 5.66 ± 0.839 nM | 116 to 118 °C | CC(C)C[C@H](NC(=O)[C@H](CC(C)C)NC(=O)[C@H](Cc1ccccc1)NC(=O)c1cnccn1)B(O)O [Compound 6k, N-pyrazineformyl-L-phenylalanyl-L-leucyl-L-leucine Boronic Acid] |  |  |  |  |  |  |  |  |  |  |  |  |  |  |  | 
